Several values for one entry are separate records, joined by “and”; a condition that tells them apart may be missing. Equal values may be shown once. Peptide text beside a SMILES is read from it.
Assays:
HeLa S3 cells [1] = test: Evaluation test 2 of multinucleation-inducing activity (multinucleation induction ratio); assay type: cell-based, human; conditions: 50 μM peptide, 4 days; for number of multinuclear cells (number): cells with two or more nuclei in 1 field of vision, individual test; for multinucleation induction ratio (%): individual test (1 field of vision)
Method: The multinucleation induction ratio was determined for the multinucleation-inducing synthetic peptides (sample 1 and sample 2) obtained in Example 1. The same HeLa S3 cells as in Example 2 were used for the sample cells. The evaluation test is described in the following.
HeLa S3 cells were seeded into each well of an 8-chamber (well) cell culture slide (also referred to as a chamber) to provide approximately 0.5×10^3 cells per well and were cultured overnight in an incubator under conditions of 5% CO2 and 37° C. The medium used was a common DMEM medium, i.e., DMEM (Wako Pure Chemical industries, Ltd., Cat. No. 043-30085) containing 10% FBS, 100 units/mL of penicillin, and 100 μg/mL of streptomycin. After this overnight culture, the medium in the culture chamber was exchanged for medium obtained by the addition of sample 1 or sample 2 in an amount giving a peptide concentration of 50 μM to DMEM medium prepared by adding 3% FBS, 100 units/mL of penicillin, and 100 μg/mL of streptomycin to the aforementioned DMEM, and subculturing was carried out by culture for 4 days under the same conditions. The control group was a peptide-free group in which only PBS (−) was added in the same volume as the peptide stock solution that was added in the sample addition groups.
After completion of the culture period, the cells in the test groups were subjected to cytoimmunostaining of a cytoplasm marker (calreticulin) nuclear staining as in Example 2. After the execution of the cytoimmunostaining and nuclear staining, the cells each test group were subjected to fluorescence observation using a confocal laser microscope and, for the cells observed in 1 field of vision, the total number of cells and the number of cells presenting two or more nuclei (number of multinucleated cells) were counted. The multinucleation induction ratio (proportion (%) for the number of cells having two or more nuclei with reference to the total number of cells observed in 1 field of vision in the microscopic observation) was calculated using the following formula: multinucleation induction ratio (%)=(number of cells having two or more nuclei)÷(total number of cells)×100. Using these conditions air the evaluation test for the multinucleation induction ratio, the test was carried out independently three times and the average multinucleation induction ratio was calculated by taking the average of the multinucleation induction ratios obtained in the individual tests.

HeLa S3 cells [2] = test: Evaluation test 1 of multinucleation-inducing activity (calreticulin cytoimmunostaining and DAPI nuclear staining, confocal fluorescence observation); assay type: cell-based, human; conditions: peptide concentration 50 μM, culture for 4 days
Method: To evaluate the multinucleation-inducing activity of the multinucleation-inducing synthetic peptides (sample 1 and sample 2) obtained in Example 1, cytoimmunostaining (fluorescence immunostaining) was performed using calreticulin as the cytoplasm marker and nuclear staining was performed with DAPI (4′,6-diamidino-2-phenylindole). HeLa S3 cells (ATCC (registered trademark), CCL2.2), a cultured cell strain originating from human cervical cancer, were used as the sample cells. The evaluation test is described in the following.
HeLa S3 cells were seeded into each well of a 4-chamber (well) cell culture slide (also referred to as a chamber) to provide approximately 1×10^3 cells per well and were cultured overnight in an incubator under conditions of 5% CO2 and 37° C. The medium used was a common DMEM medium, i.e., DMEM (Wako Pure Chemical Industries, Ltd., Cat. No. 043-30085) containing 10% […], 100 units/mL of penicillin, and 100 μg/mL of streptomycin. After this overnight culture, the medium in the culture chamber was exchanged for medium obtained by the addition, to the aforementioned DMEM medium containing PBS, penicillin and streptomycin, of the sample 1, sample 2, or sample 3 peptide in an amount providing a peptide concentration of 50 μM, and subculturing was carried out by culture for 4 days under the same conditions. The control group was a peptide-free group in which only PBS (−) was added in the same volume as the peptide stock solution that was added in the sample addition groups.
After completion of the culture period, the status of multinucleation in the cells in each test group was observed using the following cytoimmunostaining.
The cells in each test group wore first fixed followed by a blocking treatment. Specifically, the medium in the culture chamber in the test group was first removed and washing was carried out twice with cold PBS (−). A solution prepared by mixing 1 volume of methanol with 1 volume of acetone (methanol/acetone=1:1 solution) was then added and the HeLa S3 cells were fixed by standing for 15 minutes on ice. The methanol/acetone=1:1 solution was then removed acid washing was carried out three times with cold PBS PBS (−) containing 3% BSA (PBS (−) that contained 3% BSA) was added and a blocking treatment was carried out for 1 hour at room temperature. After the passage of the prescribed period of time, the PBS (−) containing 3% BSA was removed and washing with cold PBS (−) was performed three times. […]
The cells in each test group that had been subjected to this cytoimmunostaining were mounted using a cover glass and Slow Fade (Life Technologies Corporation, Cat. No. S36936), which is a DAPI-containing mountant, and fluorescence observation was performed using a confocal laser microscope. […]

Row | Compound | number of multinuclear cells (number) (HeLa S3 cells [1]) | multinucleation induction ratio (%) (HeLa S3 cells [1]) | cells in which a plurality of nuclei had formed (induction of multinucleation), fluorescence observation (HeLa S3 cells [2]) | number of nuclei per multinucleated cell, compared with sample 2 addition group (HeLa S3 cells [2]) | average multinucleation induction ratio (%) (HeLa S3 cells [1]; average of three independent tests)
1 | CC(C)C[C@H](NC(=O)[C@@H](NC(=O)[C@H](CCCNC(=N)N)NC(=O)[C@H](CCCCN)NC(=O)[C@@H](N)CCCCN)[C@@H](C)O)C(=O)N[C@@H](CCCNC(=N)N)C(=O)N[C@@H](CCCCN)C(=O)N[C@@H](CC(N)=O)C(=O)N[C@@H](CC(=O)O)C(=O)N[C@@H](CCCNC(=N)N)C(=O)N[C@@H](CCCCN)C(=O)N[C@@H](CCCCN)C(=O)N[C@@H](CCCNC(=N)N)C(=O)NCC(=O)NCC(=O)N[C@@H](CS)C(=O)N1CCC[C@H]1C(=O)N[C@@H](CC(=O)O)C(=O)NCC(=O)N[C@@H](C)C(=O)N[C@@H](CCCCN)C(=O)N[C@@H](C)C(=O)N[C@@H](CCCNC(=N)N)C(=O)N[C@@H](CS)C(=O)O [sample 1, KKRTLRKNDRKKR GG CPDGAKARC] (H-KKRTLRKNDRKKRGGCPDGAKARC-OH; N-terminus and C-terminus assumed) | 12 number and 11 number and 13 number | 41.4% and 39.3% and 41.9% | cells in which a plurality of nuclei had formed were observed | significantly larger number of nuclei per cell | 
2 | CC(C)C[C@H](NC(=O)[C@@H](NC(=O)[C@H](CCCNC(=N)N)NC(=O)[C@H](CCCCN)NC(=O)[C@@H](N)CCCCN)[C@@H](C)O)C(=O)N[C@@H](CCCNC(=N)N)C(=O)N[C@@H](CCCCN)C(=O)N[C@@H](CC(N)=O)C(=O)N[C@@H](CC(=O)O)C(=O)N[C@@H](CCCNC(=N)N)C(=O)N[C@@H](CCCCN)C(=O)N[C@@H](CCCCN)C(=O)N[C@@H](CCCNC(=N)N)C(=O)NCC(=O)NCC(=O)N[C@@H](CS)C(=O)N[C@@H](CO)C(=O)N[C@@H](CCCNC(=N)N)C(=O)N[C@@H](CCCNC(=N)N)C(=O)N[C@@H](CO)C(=O)N[C@@H](CCCCN)C(=O)N[C@@H](CO)C(=O)N[C@@H](CCCCN)C(=O)N[C@@H](CS)C(=O)O [sample 2, KKRTLRKNDRKKR GG CSRRSKSKC] (H-KKRTLRKNDRKKRGGCSRRSKSKC-OH; N-terminus and C-terminus assumed) | 9 number and 12 number and 11 number | 30.0% and 37.5% and 39.3% | cells in which a plurality of nuclei had formed were observed |  | 35.6
3 | KKRTLRKNDRKKR (listed as Homo sapiens) [sample 3, reference compound] |  |  | cells in which a plurality of nuclei had formed were not observed |  | 
